Experiments:
[1] = biological target: T1, Aldo-keto reductase family 1 member A1 (Homo sapiens, UniProt P14550); assay: In vitro inhibition of recombinant human aldehyde reductase
T1 sequence (P14550 whole entry): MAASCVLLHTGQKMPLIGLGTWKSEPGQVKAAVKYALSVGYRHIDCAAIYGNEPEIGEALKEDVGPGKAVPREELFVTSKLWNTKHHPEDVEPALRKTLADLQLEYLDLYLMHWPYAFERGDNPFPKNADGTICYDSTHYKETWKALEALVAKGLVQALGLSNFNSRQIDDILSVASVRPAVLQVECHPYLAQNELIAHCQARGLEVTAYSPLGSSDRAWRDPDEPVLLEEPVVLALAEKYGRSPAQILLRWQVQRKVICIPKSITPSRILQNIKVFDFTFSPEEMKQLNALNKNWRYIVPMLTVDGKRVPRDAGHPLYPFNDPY

[2] = biological target: Aldo-keto reductase family 1 member B1 (Homo sapiens, UniProt P15121); assay: In vitro inhibition of recombinant human aldose reductase expressed in Escherichia coli
[3] = Time require to reach maximum plasma concentration was determined in fasted rats after i.v. doses of 10 mg/kg/day; assay type: ADME, organism-based; set-up: route intravenous; details: rat, iv
[4] = Area under the concentration time curve 0-24 h was determined in nonfasted rats after p.o. doses of 6 mg/kg/day; assay type: ADME, organism-based; set-up: dose 6 mg/kg/day, time < 24 hr, route oral; details: rat, in vivo, po
[5] = Half-life was determined in fasted rats after i.v. doses of 10 mg/kg/day; assay type: ADME, organism-based; set-up: route intravenous; details: rat, in vivo, iv
Rattus norvegicus [6] = organism: Rattus norvegicus; details: Plasma
Description: Ability to lower elevated plasma triglyceride levels in diabetic rats (streptozotocin treated) model at 0.95 mg/kg/day

[7] = Area under the concentration time curve 0-24 hr was determined in fasted rats after i.v. doses of 10 mg/kg/day; assay type: ADME, organism-based; set-up: time < 24 hr, dose 10 mg/kg/day, route intravenous; details: rat, in vivo, iv
Rattus norvegicus [8] = assay: Myo-inositol accumulation in 3 month diabetic rats (streptozotocin treated) done for 30 minutes at 22 degree C in dark by using sorbitol dehydrogenase at 5 mg/kg/day; assay type: functional
Rattus norvegicus [9] = assay: Fructose accumulation in 3 month diabetic rats (streptozotocin treated) done for 30 minutes at 22 degree C in dark by using sorbitol dehydrogenase at 5 mg/kg/day; assay type: functional
[10] = Total body clearance was determined in fasted rats after i.v. doses of 10 mg/kg/day; assay type: ADME, organism-based; set-up: route intravenous; details: rat, in vivo, iv, read-out: ClT
[11] = Maximum plasma concentration was determined in nonfasted rats after p.o. doses of 6 mg/kg/day; assay type: ADME, organism-based; set-up: dose 6 mg/kg/day, route oral; details: rat, in vivo, po
[12] = Maximum plasma concentration was determined in fasted rats after p.o. doses of 6 mg/kg/day; assay type: ADME, organism-based; set-up: dose 6 mg/kg/day, route oral; details: rat, in vivo, po
[13] = Maximum plasma concentration was determined in fasted rats after i.v. doses of 10 mg/kg/day; assay type: ADME, organism-based; set-up: dose 10 mg/kg/day, route intravenous; details: rat, in vivo, iv
[14] = Time require to reach maximum plasma concentration was determined in fasted rats after p.o. doses of 6 mg/kg/day; assay type: ADME, organism-based; set-up: route oral; details: rat, po
Rattus norvegicus [15] = assay: Inhibition of sciatic nerve sorbitol accumulation in diabetic rats (streptozotocin treated) done for 30 minutes at 22 degree C in dark by using sorbitol dehydrogenase at 10 mg/kg/day; assay type: functional; details: 0.5 h
Rattus norvegicus [16] = organism: Rattus norvegicus
Description: Ability to lower elevated glucose levels in diabetic rats (streptozotocin treated) model at 1.9 mg/kg/day

Rattus norvegicus [17] = organism: Rattus norvegicus; details: Plasma; remark: listed apart in the source
Description: Ability to lower elevated plasma triglyceride levels in diabetic rats (streptozotocin treated) model at 1.4 mg/kg/day

Rattus norvegicus [18] = organism: Rattus norvegicus; remark: listed apart in the source
Description: Ability to lower elevated glucose levels in diabetic rats (streptozotocin treated) model at 1.4 mg/kg/day

Rattus norvegicus [19] = organism: Rattus norvegicus; remark: listed apart in the source
Description: Ability to lower elevated glucose levels in diabetic rats (streptozotocin treated) model at 4.8 mg/kg/day

Rattus norvegicus [20] = organism: Rattus norvegicus; remark: listed apart in the source
Description: Sorbitol accumulation in 3 month diabetic rats (streptozotocin treated) done for 30 minutes at 22 degree C in dark by using sorbitol dehydrogenase at 5 mg/kg/day; BQL is Below quantifiable level

[21] = Volume of distribution was determined in fasted rats after i.v. doses of 10 mg/kg/day; assay type: ADME, organism-based; set-up: route intravenous; details: rat, in vivo, iv
Rattus norvegicus [22] = organism: Rattus norvegicus; details: Plasma; remark: listed apart in the source
Description: Ability to lower elevated plasma triglyceride levels in diabetic rats (streptozotocin treated) model at 0.48 mg/kg/day

Rattus norvegicus [23] = assay: Improvement in myo-inositol accumulation in 3 month diabetic rats (streptozotocin treated) done for 30 minutes at 22 degree C in dark by using sorbitol dehydrogenase at 5 mg/kg/day; assay type: functional
Rattus norvegicus [24] = organism: Rattus norvegicus; remark: listed apart in the source
Description: Ability to lower elevated glucose levels in diabetic rats (streptozotocin treated) model at 0.95 mg/kg/day

[25] = Half-life was determined in fasted rats after p.o. doses of 6 mg/kg/day; assay type: ADME, organism-based; set-up: route oral; details: rat, in vivo, po
Rattus norvegicus [26] = organism: Rattus norvegicus; details: Plasma; remark: listed apart in the source
Description: Ability to lower elevated plasma triglyceride levels in diabetic rats (streptozotocin treated) model at 1.9 mg/kg/day

[27] = Time require to reach maximum plasma concentration was determined in nonfasted rats after p.o. doses of 6 mg/kg/day; assay type: ADME, organism-based; set-up: route oral; details: rat, po
Rattus norvegicus [28] = organism: Rattus norvegicus; details: Plasma; remark: listed apart in the source
Description: Ability to lower elevated plasma triglyceride levels in diabetic rats (streptozotocin treated) model at 4.8 mg/kg/day

[29] = Area under the concentration time curve 0-24 hr was determined in fasted rats after p.o. doses of 6 mg/kg/day; assay type: ADME, organism-based; set-up: time < 24 hr, dose 6 mg/kg/day, route oral; details: rat, in vivo, po
Rattus norvegicus [30] = organism: Rattus norvegicus; remark: listed apart in the source
Description: Ability to lower elevated glucose levels in diabetic rats (streptozotocin treated) model at 0.48 mg/kg/day

Rattus norvegicus [31] = assay: Improvement in sorbitol accumulation in 3 month diabetic rats (streptozotocin treated) done for 30 minutes at 22 degree C in dark by using sorbitol dehydrogenase at 5 mg/kg/day; assay type: functional
[32] = Total body clearance was determined in nonfasted rats after p.o. doses of 6 mg/kg/day; assay type: ADME, organism-based; set-up: route oral; details: rat, in vivo, po, read-out: ClT
[33] = Half-life was determined in nonfasted rats after p.o. doses of 6 mg/kg/day; assay type: ADME, organism-based; set-up: route oral; details: rat, in vivo, po
[34] = Total body clearance was determined in fasted rats after p.o. doses of 6 mg/kg/day; assay type: ADME, organism-based; set-up: route oral; details: rat, in vivo, po, read-out: ClT
Rattus norvegicus [35] = assay: Improvement in fructose accumulation in 3 month diabetic rats (streptozotocin treated) done for 30 minutes at 22 degree C in dark by using sorbitol dehydrogenase at 5 mg/kg/day; assay type: functional
Rattus norvegicus [36] = assay: Inhibition of sorbitol accumulation in lens of diabetic rats (streptozotocin treated) done for 30 minutes at 22 degree C in dark by using sorbitol dehydrogenase at 10 mg/kg/day; assay type: functional; details: Lens of camera-type eye, 0.5 h

O=C(O)Cn1cc(Cc2nc3cc(C(F)(F)F)ccc3s2)c2ccc(Br)cc21
IC50 [1]: 3400 nM

O=C(O)Cn1cc(Cc2nc3cc(F)c(F)cc3s2)c2ccccc21
IC50 [2]: 560 nM | IC50 [1]: 13000 nM

O=C(O)Cn1cc(Cc2nc3ccc(Cl)cc3s2)c2ccccc21
IC50 [1]: 2100 nM

COc1ccc2c(c1)c(Cc1nc3c(F)c(F)cc(F)c3s1)cn2CC(=O)O
IC50 [2]: 8 nM

O=C(O)Cn1cc(Cc2nc3c(F)c(F)cc(F)c3s2)c2cc(Br)ccc21
IC50 [1]: 4700 nM

Cc1ccc2c(c1)c(Cc1nc3cc(C(F)(F)F)ccc3s1)cn2CC(=O)O
IC50 [2]: 100 nM | IC50 [1]: 10200 nM

O=C(O)Cn1cc(Cc2nc3c(F)cc(F)cc3s2)c2ccccc21
IC50 [2]: 690 nM | IC50 [1]: 5100 nM

O=C(O)Cn1cc(Cc2nc3c(F)c(F)cc(F)c3s2)c2ccc(N3CCOCC3)cc21
IC50 [1]: 44000 nM

Cc1ccc2c(Cc3nc4c(F)c(F)cc(F)c4s3)cn(CC(=O)O)c2c1
IC50 [2]: 10 nM

O=C(O)Cn1cc(CCc2nc3c(F)c(F)cc(F)c3s2)c2ccccc21
IC50 [2]: 8 nM | IC50 [1]: 11000 nM

CC(C(=O)O)n1cc(Cc2nc3c(F)c(F)cc(F)c3s2)c2ccccc21 (stereo not drawn)
IC50 [2]: 163 nM

O=C(O)Cn1cc(C(=O)c2nc3c(F)c(F)cc(F)c3s2)c2ccccc21
IC50 [2]: 1600 nM

O=C(O)Cn1cc(Cc2nc3cc(F)ccc3s2)c2ccccc21
IC50 [1]: 6400 nM

O=C(O)Cn1cc(Cc2nc3ccc(F)cc3s2)c2ccccc21
IC50 [2]: 1000 nM

O=C(O)Cn1cc(Cc2nc3c(F)c(F)cc(F)c3s2)c2ccc(-c3ccccc3)cc21
IC50 [1]: 6100 nM

O=C(O)Cn1cc(Cc2nc3cccc(F)c3s2)c2ccccc21
IC50 [2]: 55 nM | IC50 [1]: 18000 nM

O=C(O)Cn1cc(Cc2nc3cc(C(F)(F)F)ccc3s2)c2cc(Cl)ccc21
IC50 [2]: 130 nM | IC50 [1]: 4900 nM

O=C(O)Cn1cc(Cc2nc3c(F)cccc3s2)c2ccccc21
IC50 [2]: 34 nM | IC50 [1]: 11000 nM

O=C(O)Cn1cc(Cc2nc3c(F)c(F)cc(F)c3s2)c2ccccc21 [LIDORESTAT]
Tmax [3]: 4.8 min | AUC [4]: 72.8 ug equiv/h/mL | half-life [5]: 5.04 h | Level (Rattus norvegicus [6]): 261 mg/dL | AUC [7]: 97.1 ug equiv/h/mL | Accumulation (Rattus norvegicus [8]): 9.26 nM/mg of dry wt | Accumulation (Rattus norvegicus [9]): 1.62 nM/mg of dry wt | clearance [10]: 1.7 mL/min/kg | Cmax [11]: 6.09 µg equiv/mL | Cmax [12]: 4.18 ug equiv/mL | Cmax [13]: 24 ug equiv/mL | Tmax [14]: 3.5 h | inhibition in vivo at 10 mg/kg/day (Rattus norvegicus [15]): 100% | Level (Rattus norvegicus [16]): 440 mg/dL | Level (Rattus norvegicus [17]): 242 mg/dL | Level (Rattus norvegicus [18]): 427 mg/dL | Level (Rattus norvegicus [19]): 417 mg/dL | Accumulation (Rattus norvegicus [20]): Below quantifiable level | Vd [21]: 0.694 L/kg | Level (Rattus norvegicus [22]): 301 mg/dL | Accumulation (Rattus norvegicus [23]): 79% | Level (Rattus norvegicus [24]): 430 mg/dL | half-life [25]: 5.61 h | Level (Rattus norvegicus [26]): 218 mg/dL | Tmax [27]: 5 h | Level (Rattus norvegicus [28]): 189 mg/dL | AUC [29]: 43.5 ug equiv/h/mL | Level (Rattus norvegicus [30]): 432 mg/dL | Accumulation (Rattus norvegicus [31]): 100% | CL/F [32]: 1.37 mL/min/kg | half-life [33]: 5.18 h | CL/F [34]: 2.24 mL/min/kg | Accumulation (Rattus norvegicus [35]): 100% | inhibition in vivo at 10 mg/kg/day (Rattus norvegicus [36]): 77%

COc1ccc2c(C(=S)N(C)CC(=O)O)cccc2c1C(F)(F)F [TOLRESTAT]
inhibition in vivo at 10 mg/kg/day (Rattus norvegicus [15]): 27% | inhibition in vivo at 10 mg/kg/day (Rattus norvegicus [36]): 7%

O=C(O)Cn1c(=O)n(Cc2ccc(Br)cc2F)c(=O)c2ccc(Cl)cc21 [ZENARESTAT]
IC50 [2]: 8 nM | IC50 [1]: 9900 nM | inhibition in vivo at 10 mg/kg/day (Rattus norvegicus [15]): 64% | inhibition in vivo at 10 mg/kg/day (Rattus norvegicus [36]): 2%

O=C(O)Cc1nn(Cc2nc3cc(C(F)(F)F)ccc3s2)c(=O)c2ccccc12 [ZOPOLRESTAT]
IC50 [1]: 38600 nM | inhibition in vivo at 10 mg/kg/day (Rattus norvegicus [15]): 80% | inhibition in vivo at 10 mg/kg/day (Rattus norvegicus [36]): 9%

Reference: ChEMBL document CHEMBL1144413 (J Med Chem, 2005)
